In US6350743B1, “Cytotoxic pyridoacridine alkaloids” (Instituto Biomar, S.A., priority 1997, dated 2002):

Legend:
Assay type in all cases: cell-based
[1] = tested on: A-549 (monolayer culture of a human lung carcinoma); assay: Antitumor screening, A-549 cell growth (Crystal Violet); conditions: A549, 72 h, A-549 cells, three days of incubation, approximate IC50
Experimental: (§1) Cells were maintained in logarithmic phase of growth in Eagle's Minimum Essential Medium, with Earle's Balanced Salts, with 2.0 mM L-glutamine, with non-essential amino acids, without sodium bicarbonate (EMEM/neaa); supplemented with 10% Fetal Calf Serum (FCS), 10^−2 M sodium bicarbonate and 0.1 g/l penicillin+G streptomycin sulfate.
(§2) A screening procedure has been carried out to determine and compare the antitumor activity of these compounds, using an adapted form of the method described by Bergeron et al. (Reference 15: Raymond J. Bergeron, Paul F. Cavanaugh, Jr., Steven J. Kline, Robert G. Hughes, Jr., Gary T. Elliot and Carl W. Porter. Antineoplastic and antiherpetic activity of spermidine catecholamide iron chelators. Biochem. Bioph. Res. Comm. 1984, 121, 848-854). The antitumor cells employed were P-388 (suspension culture of a lymphoid neoplasm from DBA/2 mouse), A-549 (monolayer culture of a human lung carcinoma), HT-29 (monolayer culture of a human colon carcinoma) and MEL-28 (monolayer culture of a human melanoma).
(§3) A-549, HT-29 cells were seeded into 16 mm wells at 2×10^4 cells per well in 1 ml aliquots of MEM 10FCS containing the indicated concentration of drug. […] An approximately IC50 was determined by comparing the growth in wells with drug to the growth in wells control.

[2] = tested on: MEL-28 (monolayer culture of a human melanoma); assay: Antitumor screening, MEL-28 cell growth; conditions: SK-MEL-28, MEL-28 cells, approximate IC50
Experimental: as §1, §2, §3

[3] = tested on: HT-29 (monolayer culture of a human colon carcinoma); assay: Antitumor screening, HT-29 cell growth (Crystal Violet); conditions: 72 h, HT-29 cells, three days of incubation, approximate IC50
Experimental: as §1, §2, §3

[4] = tested on: P-388 (suspension culture of a lymphoid neoplasm from DBA/2 mouse); assay: Antitumor screening, P-388 cell growth; conditions: P388, 72 h, P-388 cells, three days of incubation, approximate IC50 vs control growth
Experimental: as §1, §2
P-388 cells were seeded into 16 mm wells at 1×10^4 cells per well in 1 ml aliquots of MEM 5FCS containing the indicated concentration of drug. A separate set of cultures without drug was seeded as control growth to ensure that cells remained in exponential phase of growth. All determinations were carried out in duplicate. […]

`CN(C)CCc1c2c(c3nccc4c3c1Nc1ccccc1-4)NC(=O)CS2` [Shermilamine D] showed an IC50 [1] of 270 nM, an IC50 [2] of 530 nM and an IC50 [3] of 2660 nM. For the same molecule, the IC50 [4] was 1330 nM.
